# Source: patent publication US20240398806A1, “Compositions For and Methods of Treating and/or Preventing Pain” (Duke University, priority 2021, published 2024)
# Read-outs that look alike come from different tables or passages of the source.
# Assays:
# [1] = Core body temperature measurement; assay type: in vivo, C57BL/6J mice
# Method: Core body temperatures were recorded from age-matched male and female C57BL/6J mice prior to treatment (Time 0) and 30 min, 60 min, 120 min, and 300 min post-treatment using a rectal probe thermometer for mice (Thermalert Model TH-8, Physitemp Instruments, Inc., Clifton, NJ). On three days of the week leading up to the study, animals were handled and temperatures were taken to acclimate the animals to the procedure.
# SBI-553 treatment was not associated with hypothermia or hypotension. In addition to modulating motivated behavior. […] SBI-553 (at 2-30 mg/kg, i.p.) had no effect on core body temperature (FIG. 6B). […] This was an effect not secondary to hypothermia as body temperature was maintained by thermal support. These findings indicate that a Gq protein-dependent mechanism mediates NTSR1-associated side effects and is not engaged by SBI-553. Consistent with an antagonist like action at NTSR1.
# [2] = Intravenous cocaine self-administration; assay type: in vivo, mice; settings: 2, 6 or 12 mg/kg i.p.; cocaine 0.1-1 mg/kg/infusion
# Method: Once stable performance was achieved, self-administration was assessed once daily in 60 min sessions. Animals received vehicle (saline, i.p.) or SBI-553 (2, 6, or 12 mg/kg, i.p.) immediately prior to placement into self-administration chambers with access to cocaine at doses of 0.1, 0.3, 0.5, or 1 mg/kg/infusion. FIG. 7B-FIG. 7C show cocaine-induced and methamphetamine-induced hyperlocomotion.
# The effect of SBI-553 on cocaine self-administration was both cocaine-dose dependent and SBI-553-dose dependent. […] In the presence of β-arrestin2, SBI-553 reduced activity in mice. A 12 mg/kg (i.p.) dose of SBI-553 decreased both cocaine-and methamphetamine-induced hyperlocomotion in wild-type (WT) mice on a C57BL/6J background (FIG. 7B-FIG. 7C). […] Conversely, a significant reduction in locomotion was absent in global β-arrestin2 KO mice (Slosky L M, et al. (2020) Cell. 181(6):1364-1379e14).
# [3] = Pharmacokinetics in monkey (IV and PO); assay type: in vivo; settings: for AUC: monkey; for MRT last: read-out: MRT0-last
# [4] = Plantar incision-induced post-operative pain (mechanical allodynia) in WT and Arrb2 KO mice; assay type: in vivo; settings: 12 mg/kg IP
# NTSR2 = biological target: T1, NTSR2 (Homo sapiens, UniProt O95665); experiment: Cellular assay of β-arrestin-2 translocation in cells expressing NTSR2; assay type: cell-based
# T1 construct: expressed in transfected cells; host or cells: HEK293 cells
# Method: First, using cellular assays, whether IND candidates such as SBI-810 are similar or better than SBI-553 as β-arrestin biased agonist at NTSR1. is assessed. The chemical entities used in this work were synthesized and validated. However, routine validation of the profile of these compounds is performed routinely using both cellular and in vivo assays. For example, HEK293 cells that express either the NTSR1 or NTSR2 are used to assess the functional profile of the various chemical probes. In addition, a series of genetically engineered mouse lines are used to provide an in vivo validation of novel chemical entities for their abilities to module behaviors in these animals.
# Fourth, cellular assays are used to establish that IND ready analogs like SBI-810 are still selective for the NTSR1 rather than NTSR2. The specificity of the lead compounds toward NTSR1. NTSR2. and β-arrestin-2 are tested in respective cellular assays. More specifically, cells expressing either NTSR1 or NTSR2 are used to assess the function of various compound. […] This translocation is not observed in cells expressing NTSR2.
# Fourth, genetically engineered mice are used to assess the effects and mechanisms of novel ligands. The specificity of the lead compounds toward NTSR1, NTSR2, and β-arrestin-2 dependent signaling is examined. […]
# [5] = global β-arrestin2 KO mice; cited from earlier work
# [6] = mouse, in vivo; cited from earlier work
# NTSR1 [7] = biological target: T2, NTSR1 (Homo sapiens, UniProt P30989); experiment: [3H]SBI-553 saturation binding to NTSR1-containing HEK293T cell membranes; parameters: expressed in transfected cells; host or cells: HEK293T cell membranes; settings: below 400 nM
# NTSR1 [8] = biological target: T2, NTSR1; experiment: Gq protein activation / intracellular Ca++ (FIG. 5A); assay type: cell-based; parameters: expressed in transfected cells; host or cells: HEK293T cell membranes; settings: unlike NT
# From the text: Preliminary studies provided significant data for this example. SBI-553 was derived from a medicinal chemistry campaign to improve the ML314 probe series and was selected for potency, pharmacokinetic profile, and selectivity for NTSR1 over the NTSR2 (Pinkerton A B, et al. (2019) J Med Chem. 62(17):8357-8363, which is incorporated by reference for its teachings of the making of SBI-553). […] Binding specificity to NTSR1 was further confirmed by comparing membranes containing an off-target receptor (i.e., b2-adrenergic receptor) (Slosky L M, et al. (2020) Cell. 181(6):1364-1379e14). […] These findings indicate that SBI-553 is a β-arrestin-biased ligand that stimulates β-arrestin-mediated processes at NTSR1 […] without activating Gq protein signaling (FIG. 5).
# [9] = Paclitaxel (PTX)-induced mechanical allodynia, von Frey paw withdrawal threshold; settings: i.t., 1 mg≈2 nmol as printed
# T2 sequence (P30989 whole entry): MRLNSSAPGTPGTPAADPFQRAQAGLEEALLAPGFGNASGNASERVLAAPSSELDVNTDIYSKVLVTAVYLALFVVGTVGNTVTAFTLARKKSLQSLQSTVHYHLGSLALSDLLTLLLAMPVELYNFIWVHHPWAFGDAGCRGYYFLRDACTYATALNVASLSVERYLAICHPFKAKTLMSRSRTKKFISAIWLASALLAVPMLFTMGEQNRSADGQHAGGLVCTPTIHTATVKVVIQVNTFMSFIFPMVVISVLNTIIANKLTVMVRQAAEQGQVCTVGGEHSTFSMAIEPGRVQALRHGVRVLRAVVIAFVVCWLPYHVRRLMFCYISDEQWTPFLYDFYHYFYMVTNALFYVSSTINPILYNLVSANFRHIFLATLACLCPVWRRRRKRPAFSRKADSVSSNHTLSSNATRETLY
# T1 sequence (O95665 whole entry, species assumed): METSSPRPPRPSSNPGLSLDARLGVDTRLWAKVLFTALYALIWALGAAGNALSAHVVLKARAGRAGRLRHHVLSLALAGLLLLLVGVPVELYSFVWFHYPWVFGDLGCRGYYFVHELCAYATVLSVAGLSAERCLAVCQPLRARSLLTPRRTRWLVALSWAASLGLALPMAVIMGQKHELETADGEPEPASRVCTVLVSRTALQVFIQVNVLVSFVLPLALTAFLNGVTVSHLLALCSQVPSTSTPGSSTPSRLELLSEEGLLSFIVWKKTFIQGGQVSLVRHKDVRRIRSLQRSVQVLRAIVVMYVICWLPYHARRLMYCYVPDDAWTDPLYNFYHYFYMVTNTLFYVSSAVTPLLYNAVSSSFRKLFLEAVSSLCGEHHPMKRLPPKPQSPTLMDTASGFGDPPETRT
structure (smiles),measurement,setting,value
COc1ccccc1C1CCN(c2nc(C3(F)CC3)nc3ccc(N(C)CCO)cc23)CC1 [SBI-553],Core body temperature,"[1]; 2-30 mg/kg, i.p.",no effect
same,Reversal of PD149163-associated decrease in body temperature,[1]; pretreatment p.o. 30 min prior to PD149163 (i.p.),dose-dependently reversed
same,Cocaine self-administration,[2],maintenance intake reduction
same,Co,"[3]; Monkey, IV 5 mg/kg",4572 ng/mL
same,T2/2,"[3]; Monkey, IV 5 mg/kg",4.78 h
same,CI,"[3]; Monkey, PO 20 mg/kg",8 mL/min/kg
same,Co,"[3]; Monkey, PO 20 mg/kg",67.6 ng/mL
same,Levels in plasma,[3]; following i.v. and p.o. dosing,good levels in plasma
same,AUC,"[3]; plasma, iv, 5 mg/kg, Monkey, IV 5 mg/kg, read-out: AUCo-inf",4340 ng·h/mL
same,AUC,"[3]; plasma, iv, 5 mg/kg, Monkey, IV 5 mg/kg, read-out: AUCo-last",4280 ng·h/mL
same,AUC,"[3]; plasma, po, 20 mg/kg, Monkey, PO 20 mg/kg, read-out: AUCo-inf",864 ng·h/mL
same,AUC,"[3]; plasma, po, 20 mg/kg, Monkey, PO 20 mg/kg, read-out: AUCo-last",797 ng·h/mL
same,clearance,"[3]; plasma, Monkey, IV 5 mg/kg",19.2 mL/min/kg
same,MRT last,"[3]; plasma, Monkey, IV 5 mg/kg",2.3 h
same,Vd,"[3]; plasma, Monkey, IV 5 mg/kg, read-out: Vdss",3.1 L/kg
same,half-life,"[3]; plasma, Monkey, PO 20 mg/kg",8 h
same,MRT last,"[3]; plasma, Monkey, PO 20 mg/kg",11.9 h
same,Duration of analgesic effect,[4],more than 4.5 hr
same,Time after injection at which analgesic effect was observed,[4],2 h
same,Plantar incision-induced mechanical allodynia,[4]; Arrb2 KO mice,not
same,Plantar incision-induced mechanical allodynia,[4]; WT mice,significantly reduced
same,Translocation of β-arrestin-2 to intracellular compartments,NTSR2,not observed
same,Significant reduction in locomotion,[5],absent
same,Methamphetamine conditioned place preference,[6],reduced
same,Specific [3H]SBI-553 binding as share of total binding,NTSR1 [7],~50%
same,Activation of G protein Gq / intracellular Ca++,NTSR1 [8],cannot activate the G protein Gq
same,Duration of reduction of mechanical allodynia,[9],> 24 h
same,PTX-induced mechanical allodynia (increased PWT) versus vehicle,[9]; four weeks after PTX,significant reduction of mechanical allodynia
